The test system of data set [1] is carbon tetrachloride-induced liver damage. Description: carbon tetrachloride-induced liver damage in rats. The class given is in vivo. Particulars: rat, in comparison with controls.
For a further data set, the system named is male mice. Description: acute toxicity by oral administration. The class given is in vivo, mouse. Here is the method: On the other hand, the compounds of the present invention were confirmed that their toxicities (i.e. LD50) were more than […] animal body weight by oral administration. Therefore, the compounds of the present invention may be considered to be sufficiently safe and suitable for medical use.

In another data set the test system is blood pressure. Description: fall in blood pressure in the allobarbital-anaesthetized dog. The class given is in vivo. Particulars: intravenous.
Data set [2] concerns adenosine diphosphate-induced blood platelet aggregation. Description: inhibition of adenosine diphosphate-induced blood platelet aggregation in platelet-rich plasma. The class given is cell-based. Particulars: Homo sapiens; platelet-rich plasma of humans; read-out: concentration producing 50% inhibition of adenosine diphosphate-induced blood platelet aggregation.
Data set [3] deals with α-naphthylisothiocyanate-induced liver damage. Kind of data set: α-naphthylisothiocyanate-induced liver damage in rats. The format is in vivo. Particulars: rat, oral, 100 μg/kg, in comparison with controls.
Data set [4] concerns D(+)-galactoseamine-induced liver damage. Kind of data set: D(+)-galactoseamine-induced liver damage in rats. The class given is in vivo. Particulars: rat, oral, 100 μg/kg, in comparison with control.
The test system of the next data set is uterine contraction. Description: stimulation of uterine contraction in the pregnant female rat. The class given is in vivo. To be noted: 20th day of gestation, intravenous.
Another data set relates to stress ulceration. Description: inhibition of stress ulceration in rats. The class given is in vivo. Particulars: rat, oral. From the text:
For example, in standard laboratory tests, (i) in stress ulceration of rats [produced according to the methods of Takagi and Okabe, Jap.

Values after ≈ are worked out from the molar mass of the structure shown.

In the case of `CCCC1CCC([C@H](O)/C=C/[C@H]2[C@H](O)CC(=O)[C@@H]2CC(=O)CCCCC(=O)CO)C1` (stereo partly drawn) [1-Hydroxymethyl-11α,15(S)-dihydroxy-15-(3-propylcyclopentyl)-16,17,18,19,20-pentanorprost-trans-13-ene-1,6,9-trione], in data set [1] (oral, 50 μg/kg), the “inhibition of plasma GOT (glutamic oxalacetic transaminase)” value stood at 46.7% and the “inhibition of plasma GPT (glutamic pyruvic transaminase)” value worked out at 45.1%. Besides, the “deaths in acute toxicity test” value with male mice (5 mg/kg) is listed as “one death in 5 cases”. In the data set on blood pressure (0.1 μg/kg), the “duration of fall in blood pressure” value was found to be 9 min and the “fall in blood pressure” value is given as 20 mm Hg. In the data set on blood pressure (0.2 μg/kg), the “duration of fall in blood pressure” value is 23 min and the “fall in blood pressure” value was 35 mm Hg. Besides, the IC50 in data set [2] was 0.0018 to 0.018 µg/mL (≈ 0.00426 to 0.0426 µM).

As to `CCCCC1CCC([C@H](O)/C=C/[C@H]2[C@H](O)CC(=O)[C@@H]2CC(=O)CCCCC(=O)CO)C1` (stereo partly drawn) [1-Hydroxymethyl-11α,15(S)-dihydroxy-15-(3-butylcyclopentyl)-16,17,18,19,20-pentanorprost-trans-13-ene-1,6,9-trione], in data set [1] (oral, 50 μg/kg), the “inhibition of plasma GOT (glutamic oxalacetic transaminase)” value is recorded as 54.9% and the “inhibition of plasma GPT (glutamic pyruvic transaminase)” value came to 48.6%. In data set [3], the “inhibition of plasma GOT” value worked out at 30.3%, the “inhibition of plasma GPT” value was 41.7% and the “inhibition of plasma bilirubin” value came to 15.2%. In data set [4], the “inhibition of plasma GOT” value is on record as 57.0%, the “inhibition of plasma GPT” value is listed as 54.0% and the “inhibition of plasma bilirubin” value came to 63.0%. The “deaths in acute toxicity test” value in the data set on male mice (10 mg/kg) turned out to be 2 deaths in 5 cases. Further, the “stimulation of uterine contraction” value in the data set with uterine contraction (20 μg/kg) is recorded as “stimulated uterine contraction”. The “stimulation of uterine contraction” value in the data set on uterine contraction (50 μg/kg) is given as “stimulated uterine contraction”. For the same compound, in the data set on blood pressure (0.5 μg/kg), the “duration of fall in blood pressure” value worked out at 17 min and the “fall in blood pressure” value came out at 20 mm Hg. Also, in the data set on blood pressure (1.0 μg/kg), the “duration of fall in blood pressure” value is 40 min and the “fall in blood pressure” value is on record as 47 mm Hg. In addition, the IC50 in data set [2] lay within 0.0036 to 0.072 µg/mL (≈ 0.00825 to 0.165 µM).

As to `CCCC1CC([C@H](O)/C=C/[C@H]2[C@H](O)CC(=O)[C@@H]2CC(=O)CCCCC(=O)CO)C1` (relative stereo) [1-hydroxymethyl-11α,15(S)-dihydroxy-15-(3-propylcyclobutyl)-16,17,18,19,20-pentanorprost-trans-13-ene-1,6,9-trione], in data set [3], the “inhibition of plasma GOT” value was 53.1%, the “inhibition of plasma GPT” value is on record as 61.3% and the “inhibition of plasma bilirubin” value was found to be 30.3%.

Consider `CCCC[C@H](C)C[C@H](O)/C=C/[C@H]1[C@H](O)CC(=O)[C@@H]1CC(=O)CCCCC(=O)CO` (relative stereo) [1-Hydroxymethyl-11α,15(S)-dihydroxy-17(S),20-dimethylprost-trans-13-ene-1,6,9-trione], for which, in data set [1] (oral, 50 μg/kg), the “inhibition of plasma GOT (glutamic oxalacetic transaminase)” value worked out at 58.0% and the “inhibition of plasma GPT (glutamic pyruvic transaminase)” value turned out to be 59.7%. Also, in data set [1] (subcutaneous, 20 μg/kg), the “inhibition of plasma GOT (glutamic oxalacetic transaminase)” value is 61.4% and the “inhibition of plasma GPT (glutamic pyruvic transaminase)” value is recorded as 48.7%. In data set [3], the “inhibition of plasma GOT” value was determined as 49.0%, the “inhibition of plasma GPT” value is 53.7% and the “inhibition of plasma bilirubin” value was found to be 21.2%. Also, the “deaths in acute toxicity test” value in the data set with male mice (5 mg/kg) was “no deaths in 10 cases”. The “deaths in acute toxicity test” value with male mice (10 mg/kg) is listed as “no deaths in 10 cases”. Also, in the data set with uterine contraction (20 μg/kg), the “stimulation of uterine contraction” value is recorded as “stimulated uterine contraction”. Further, the “inhibition of stress ulceration” value in the data set on stress ulceration (20 μg/kg) came out at 56.8%. In the data set with stress ulceration (50 μg/kg), the “inhibition of stress ulceration” value was 91.8%. For the same compound, in the data set with blood pressure (0.3 μg/kg), the “duration of fall in blood pressure” value is 14 min and the “fall in blood pressure” value is recorded as 6 mm Hg. In the data set on blood pressure (0.5 μg/kg), the “duration of fall in blood pressure” value turned out to be 29 min and the “fall in blood pressure” value was determined as 15 mm Hg.

For the origin of these results see patent US4443478A, “Prostaglandin analogues” (Ono Pharmaceutical Co., Ltd., priority 1981, dated 1984).
